Laboratory results taken from patent publication US9066865B2, “Pharmaceutical compositions for the treatment of inner ear disorders” (AURIS MEDICAL AG, priority 2005, dated 2015).

Legend:
[1] = in vitro release of Ketamine from hyaluronic acid gel into PBS (without membrane or Franz cell with filter/dialysis membrane); assay type: physicochemical
Description: A hyaluronic acid solution (Hylumed, Genzyme Corp.) was prepared at concentrations of 5 and 7.5% in phosphate buffered saline (PBS). At 8%, handling of the gel had shown to be difficult due to the high viscosity. S-(+)-Ketamine hydrochloride (Sigma-Aldrich) was dissolved at a concentration of 2% (weight/weight) equivalent to 73 mM. To evaluate the importance of the drug load factor, concentrations of 0.5% and 2.5% were also tested. Release of the pharmacologically active agent was measured in PBS, a common receiver fluid for controlled release studies, either without any membrane or by using a filter membrane or a dialysis membrane (Spectropore) in a Franz cell (PermeGear). The membranes were employed to mimic the rate limiting membrane of the round window. The temperature of the fluid was maintained constant at body temperature. The bottom chamber of the Franz cell was filled with 5 ml of PBS as the receiver fluid. The receiver fluid contained a stir bar for continuous agitation. The upper chamber was filled with approximately 50 mg of gel and the cell assembled. At various time points, aliquots (typically 1 ml) were withdrawn and analyzed by UV spectrophotometry (Agilent 8453). The absorbance at 215 nm was measured and the concentration calculated using an extinction coefficient of 30 ml/mg cm. As the volume of the aliquot was known, the total amount released could be determined. Each time an aliquot was withdrawn, the same volume of PBS was placed back into the Franz cell chamber.

[2] = pharmacokinetic study: Ketamine in perilymph after 2.8% hyaluronic acid gel on the round window membrane; assay type: in vivo; conditions: 1 mM, guinea pig
Description: In a second step, a pharmacokinetic study with pigmented guinea pigs was carried out in order to evaluate in vivo the diffusion of Ketamine from a hyaluronic acid gel formulation across the round window membrane into the inner ear. A total of 30 animals were tested for concentrations of the pharmaceutical compound in the perilymph at 1 hour, 3 hours, 8 hours, 24 hours and 72 hours following gel administration; 6 animals per time point were tested.
Animals were anaesthetized with a single-dose i.p. injection of 0.3 ml/kg of pentobarbital at 6% (Ceva sante animale), and the right ear bulla was opened using a posterior auricular surgical procedure (dorsal approach). 2 microliters of the hyaluronic gel formulation (2.8% Hylumed Sterile in artificial perilymph, molecular weight 2.44 million; Genzyme Corp.) with S-(+)-Ketamine (Sigma-Aldrich) at a concentration of 1 milliM were then deposited onto the round window membrane of the inner ear. At each of the aforementioned time points, one group of animals was decapitated under deep anaesthesia (pentobarbital 50 mg/kg). […] The samples were then analyzed by liquid chromatography mass spectrometry with a limit of quantification of 0.2 ng/ml (HPLC instrument: Perkin Elmer series 200; mass spectrometer detector: MSD Sciex API 4000 Applied Biosystems; column: Zorbax SB CN 50×2.1 mm 5 μm-Agilent technologies).

[3] = tested on: PCP binding site of the NMDA receptor; conditions: relative to (R)-ketamine; cited from earlier work

CN[C@@]1(c2ccccc2Cl)CCCCC1=O (stereo in doubt) [Ketamine, 2-(2-chlorophenyl)-2-(methylamino)-cyclohexanone]
release rate at 7.5% hyaluronic acid compared with 5% ([1]; 7.5% hyaluronic acid gel, rate limiting membrane): less quickly than at 5%
duration of release of Ketamine into PBS ([1]; Franz cell with dialysis membrane): about three days
duration of release of Ketamine into PBS ([1]; Franz cell with filter membrane): approximately 60 hours
release speed compared with Ketamine hydrochloride solution ([1]; gel with 0.5% Ketamine by weight, Franz cell with filter membrane): nearly as fast as a simple Ketamine hydrochloride solution
amount released in the first hour (initial burst) ([1]; gel with 2.5% Ketamine loading factor, Franz cell with filter membrane): about 20%
share of the total cumulative concentration in PBS achieved ([1]; hyaluronic acid gel, no rate limiting membrane, after one hour): ~50%
duration of release of Ketamine from hyaluronic acid gel ([1]; no membrane): over just a few hours
time to maximum concentration of Ketamine in perilymph ([2]; 2 microliters on round window membrane): within one hour
last quantifiable levels in perilymph ([2]; LOQ 0.2 ng/ml): after three days
higher affinity to the PCP binding site of the NMDA receptor than (R)-ketamine [3]: 3-4 fold
